From ChEMBL document CHEMBL4138209, “Inhibitory effects and structural insights for a novel series of coumarin-based compounds that selectively target human CA IX and CA XII carbonic anhydrases” (Eur J Med Chem, 2018)

Columns and labels:
Carbonic anhydrase 1 = Carbonic anhydrase 1 (Homo sapiens, UniProt P00915); assay: Inhibition of human carbonic anhydrase 1 incubated for 15 mins prior to testing by stopped-flow CO2 hydration assay
Carbonic anhydrase 2 = Carbonic anhydrase 2 (Homo sapiens, UniProt P00918); assay: Inhibition of human carbonic anhydrase 2 incubated for 15 mins prior to testing by stopped-flow CO2 hydration assay
Carbonic anhydrase 9 = Carbonic anhydrase 9 (Homo sapiens, UniProt Q16790); assay: Inhibition of human carbonic anhydrase 9 incubated for 15 mins prior to testing by stopped-flow CO2 hydration assay
Carbonic anhydrase 12 = Carbonic anhydrase 12 (Homo sapiens, UniProt O43570); assay: Inhibition of human carbonic anhydrase 12 incubated for 15 mins prior to testing by stopped-flow CO2 hydration assay
Chain of Carbonic anhydrase 12 (O43570 whole entry): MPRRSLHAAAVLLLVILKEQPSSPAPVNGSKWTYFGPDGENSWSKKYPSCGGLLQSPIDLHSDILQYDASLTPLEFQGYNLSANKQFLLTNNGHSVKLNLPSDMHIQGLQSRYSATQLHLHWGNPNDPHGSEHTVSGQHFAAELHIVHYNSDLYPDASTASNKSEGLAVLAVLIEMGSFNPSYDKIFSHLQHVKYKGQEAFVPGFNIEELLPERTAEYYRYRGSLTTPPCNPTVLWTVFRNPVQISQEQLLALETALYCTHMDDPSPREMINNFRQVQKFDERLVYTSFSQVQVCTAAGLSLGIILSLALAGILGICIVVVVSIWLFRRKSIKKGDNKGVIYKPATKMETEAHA

Chain of Carbonic anhydrase 1 (P00915 whole entry): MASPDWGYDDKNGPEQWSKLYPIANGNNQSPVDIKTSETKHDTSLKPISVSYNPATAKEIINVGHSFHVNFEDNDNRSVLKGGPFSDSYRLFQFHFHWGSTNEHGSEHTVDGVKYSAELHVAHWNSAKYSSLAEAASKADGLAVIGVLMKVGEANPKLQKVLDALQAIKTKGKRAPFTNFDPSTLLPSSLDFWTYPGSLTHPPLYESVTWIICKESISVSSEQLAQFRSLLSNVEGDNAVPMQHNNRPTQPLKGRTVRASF

| Compound | Ki (Carbonic anhydrase 1) | Ki (Carbonic anhydrase 2) | Ki (Carbonic anhydrase 9) | Ki (Carbonic anhydrase 12) |
| --- | --- | --- | --- | --- |
| Cc1c(O)ccc2c(-c3ccccc3)cc(=O)oc12 | > 10 µM | > 10 µM | 0.0395 µM | 0.402 µM |
| O=c1cc(-c2ccc([N+](=O)[O-])cc2)c2ccc(O)cc2o1 | > 10 µM | > 10 µM | 0.0203 µM | 0.0065 µM |
| O=C(Oc1ccc2ccc(=O)oc2c1)c1ccccc1 | > 10 µM | > 10 µM | 0.0514 µM | 0.814 µM |
| O=c1cc(-c2ccccc2F)c2ccc(O)cc2o1 | > 10 µM | > 10 µM | 0.0318 µM |  |
| CC(=O)Oc1ccc2oc(=O)ccc2c1 | > 10 µM | > 10 µM | 0.0231 µM |  |
| O=c1cc(-c2ccccc2)c2ccc(O)cc2o1 | > 10 µM | > 10 µM | 0.0472 µM | 0.0908 µM |
| CC(=O)Oc1cc2ccc(=O)oc2cc1OC(C)=O | > 10 µM | > 10 µM | 0.116 µM |  |
| O=C(Oc1cc2ccc(=O)oc2cc1OC(=O)c1ccccc1)c1ccccc1 | > 10 µM | > 10 µM | 0.0384 µM |  |
| O=c1cc(-c2cccc(Cl)c2)c2ccc(O)cc2o1 | > 10 µM | > 10 µM | 0.031 µM |  |
| Cc1cccc(-c2cc(=O)oc3cc(O)ccc23)c1 | > 10 µM | > 10 µM | 0.017 µM |  |
| Cc1cccc(-c2cc(=O)oc3c(C)c(O)ccc23)c1 | > 10 µM | > 10 µM | 0.0374 µM |  |
| Nc1ccc(-c2cc(=O)oc3cc(O)ccc23)cc1 | > 10 µM | > 10 µM | 0.0216 µM |  |
| Cc1c(O)ccc2c(-c3cccc(Cl)c3)cc(=O)oc12 | > 10 µM | > 10 µM | 0.0366 µM |  |
| Cc1c(O)ccc2c(-c3ccc([N+](=O)[O-])cc3)cc(=O)oc12 | > 10 µM | > 10 µM | 0.0309 µM |  |
| Cc1c(O)ccc2c(-c3ccccc3F)cc(=O)oc12 | > 10 µM | > 10 µM | 0.0959 µM |  |
| Cc1ccc(-c2cc(=O)oc3c(C)c(O)ccc23)cc1 | > 10 µM | > 10 µM | 0.0382 µM |  |
| O=c1cc(-c2ccc(Cl)cc2)c2ccc(O)cc2o1 | > 10 µM | > 10 µM | 0.0315 µM |  |
| O=C(Oc1ccc2oc(=O)ccc2c1)c1ccccc1 | > 10 µM | > 10 µM | 0.0299 µM |  |
| Cc1ccc(-c2cc(=O)oc3cc(O)ccc23)cc1 | > 10 µM | > 10 µM | 0.0358 µM |  |
| Cc1c(O)ccc2c(-c3ccc(N)cc3)cc(=O)oc12 | > 10 µM | > 10 µM |  |  |
| Cc1c(O)ccc2c(-c3ccccc3Cl)cc(=O)oc12 | > 10 µM | > 10 µM | 0.0275 µM |  |
| O=c1cc(-c2ccccc2Cl)c2ccc(O)cc2o1 | > 10 µM | > 10 µM | 0.0308 µM |  |
| Cc1c(O)ccc2c(-c3ccc(Cl)cc3)cc(=O)oc12 | > 10 µM | > 10 µM | 0.0353 µM |  |
| O=c1ccc2cc(O)ccc2o1 [6-HYDROXYCOUMARIN] | > 10 µM | > 10 µM | 0.0305 µM | 0.0339 µM |
| CC(=O)Oc1ccc2ccc(=O)oc2c1 [7-ACETOXYCOUMARIN] | > 10 µM | > 10 µM | 0.0402 µM | 0.573 µM |
| O=c1ccc2cc(O)c(O)cc2o1 [ESCULETIN] | > 10 µM | > 10 µM | 0.0364 µM | 0.0093 µM |
